Results published in ChEMBL document CHEMBL1909046, “DrugMatrix in vitro pharmacology data”.

Experiments:
[1] = DRUGMATRIX: Purinergic P2X radioligand binding (ligand: [3H] alpha, beta-Methylene-ATP); format: cell membranes, Oryctolagus cuniculus, New Zealand albino, Urinary bladder, Membrane; conditions: Not Active = under 50% inhibition at 10 µM
[2] = DRUGMATRIX: beta-Lactamase enzyme inhibition (substrate: Nitrocefin); design: species or system Bacillus cereus; conditions: Not Active = under 50% inhibition at 10 µM
[3] = target: Voltage-gated inwardly rectifying potassium channel KCNH2 (Homo sapiens, UniProt Q12809); conditions: hek293; also: in other assays of this panel Not Active means under 50% inhibition at 10 µM
Chain of Voltage-gated inwardly rectifying potassium channel KCNH2 (Q12809 whole entry): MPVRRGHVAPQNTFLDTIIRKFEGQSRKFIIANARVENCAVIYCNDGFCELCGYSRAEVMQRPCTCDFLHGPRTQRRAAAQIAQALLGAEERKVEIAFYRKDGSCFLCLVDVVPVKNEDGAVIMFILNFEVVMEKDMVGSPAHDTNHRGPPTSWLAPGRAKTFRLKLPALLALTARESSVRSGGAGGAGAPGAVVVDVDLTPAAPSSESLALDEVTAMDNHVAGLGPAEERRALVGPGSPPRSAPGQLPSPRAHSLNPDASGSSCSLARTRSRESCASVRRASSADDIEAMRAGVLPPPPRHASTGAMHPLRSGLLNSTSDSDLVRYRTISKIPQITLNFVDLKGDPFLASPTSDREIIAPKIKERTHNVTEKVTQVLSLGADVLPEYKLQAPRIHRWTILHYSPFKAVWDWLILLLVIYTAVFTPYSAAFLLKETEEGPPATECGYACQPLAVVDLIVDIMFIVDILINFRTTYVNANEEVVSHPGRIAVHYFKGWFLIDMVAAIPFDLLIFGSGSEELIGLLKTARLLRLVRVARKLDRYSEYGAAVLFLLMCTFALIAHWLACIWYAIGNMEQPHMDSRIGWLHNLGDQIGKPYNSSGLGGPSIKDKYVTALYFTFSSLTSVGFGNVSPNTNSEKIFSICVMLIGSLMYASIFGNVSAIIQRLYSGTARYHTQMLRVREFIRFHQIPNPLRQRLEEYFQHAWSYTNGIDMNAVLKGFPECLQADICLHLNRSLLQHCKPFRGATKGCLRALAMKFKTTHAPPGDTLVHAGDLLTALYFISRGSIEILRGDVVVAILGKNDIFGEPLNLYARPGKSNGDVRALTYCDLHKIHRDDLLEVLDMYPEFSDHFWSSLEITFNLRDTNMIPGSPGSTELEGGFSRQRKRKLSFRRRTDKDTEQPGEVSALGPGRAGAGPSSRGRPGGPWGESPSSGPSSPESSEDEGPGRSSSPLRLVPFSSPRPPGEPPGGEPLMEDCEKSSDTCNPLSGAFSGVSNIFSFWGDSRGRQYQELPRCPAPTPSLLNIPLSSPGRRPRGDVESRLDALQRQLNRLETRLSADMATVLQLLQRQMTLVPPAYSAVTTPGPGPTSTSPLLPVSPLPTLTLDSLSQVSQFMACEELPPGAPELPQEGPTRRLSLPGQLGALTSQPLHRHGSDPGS

[4] = target: Sodium-dependent dopamine transporter (Homo sapiens, UniProt Q01959); assay: DRUGMATRIX: Dopamine Transporter radioligand binding (ligand: [125I] RTI-55); format: cell membranes, CHO-K1, Membrane; conditions: cho-k1; Not Active = under 50% inhibition at 10 µM
Chain of Sodium-dependent dopamine transporter (Q01959 whole entry): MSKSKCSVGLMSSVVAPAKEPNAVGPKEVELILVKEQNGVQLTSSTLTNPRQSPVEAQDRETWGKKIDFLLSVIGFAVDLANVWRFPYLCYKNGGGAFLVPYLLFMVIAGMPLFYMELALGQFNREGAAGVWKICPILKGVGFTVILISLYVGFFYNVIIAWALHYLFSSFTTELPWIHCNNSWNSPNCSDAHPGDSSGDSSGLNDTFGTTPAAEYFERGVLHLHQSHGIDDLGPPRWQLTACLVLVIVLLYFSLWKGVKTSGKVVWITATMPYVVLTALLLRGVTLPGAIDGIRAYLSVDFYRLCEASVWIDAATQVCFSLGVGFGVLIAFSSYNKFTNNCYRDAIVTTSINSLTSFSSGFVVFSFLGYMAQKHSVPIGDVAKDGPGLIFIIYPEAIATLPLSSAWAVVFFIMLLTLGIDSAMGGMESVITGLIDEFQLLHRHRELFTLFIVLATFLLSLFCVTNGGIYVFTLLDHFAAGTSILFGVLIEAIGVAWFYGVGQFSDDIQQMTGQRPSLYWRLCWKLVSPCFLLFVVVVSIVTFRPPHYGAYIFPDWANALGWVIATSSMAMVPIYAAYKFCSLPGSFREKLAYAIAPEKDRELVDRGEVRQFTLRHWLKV

[5] = target: T1, Cysteinyl leukotriene receptor 1 (Homo sapiens, UniProt Q9Y271); format: cell membranes, CHO-K1, Membrane; conditions: cho-k1; also: in other assays of this panel Not Active means under 50% inhibition at 10 µM
T1 sequence (Q9Y271 whole entry): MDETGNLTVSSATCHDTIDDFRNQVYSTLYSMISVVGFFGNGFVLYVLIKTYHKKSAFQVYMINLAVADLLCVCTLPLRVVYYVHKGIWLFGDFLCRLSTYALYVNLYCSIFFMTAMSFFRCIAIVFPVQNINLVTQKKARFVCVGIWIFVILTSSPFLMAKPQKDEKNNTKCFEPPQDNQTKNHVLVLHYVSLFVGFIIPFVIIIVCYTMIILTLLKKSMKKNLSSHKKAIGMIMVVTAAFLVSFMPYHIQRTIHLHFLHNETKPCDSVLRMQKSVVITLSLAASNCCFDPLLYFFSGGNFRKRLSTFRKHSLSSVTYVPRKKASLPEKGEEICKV

[6] = target: T2, Angiotensin-converting enzyme (Oryctolagus cuniculus, UniProt P12822); assay: biochemical; format: tissue-based, Lung;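 also: enzymatic inhibition of angiotensin-converting enzyme measured with FAPGG as the substrate; in other assays of this panel Not Active means under 50% inhibition at 10 µM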
T2 sequence (P12822 whole entry): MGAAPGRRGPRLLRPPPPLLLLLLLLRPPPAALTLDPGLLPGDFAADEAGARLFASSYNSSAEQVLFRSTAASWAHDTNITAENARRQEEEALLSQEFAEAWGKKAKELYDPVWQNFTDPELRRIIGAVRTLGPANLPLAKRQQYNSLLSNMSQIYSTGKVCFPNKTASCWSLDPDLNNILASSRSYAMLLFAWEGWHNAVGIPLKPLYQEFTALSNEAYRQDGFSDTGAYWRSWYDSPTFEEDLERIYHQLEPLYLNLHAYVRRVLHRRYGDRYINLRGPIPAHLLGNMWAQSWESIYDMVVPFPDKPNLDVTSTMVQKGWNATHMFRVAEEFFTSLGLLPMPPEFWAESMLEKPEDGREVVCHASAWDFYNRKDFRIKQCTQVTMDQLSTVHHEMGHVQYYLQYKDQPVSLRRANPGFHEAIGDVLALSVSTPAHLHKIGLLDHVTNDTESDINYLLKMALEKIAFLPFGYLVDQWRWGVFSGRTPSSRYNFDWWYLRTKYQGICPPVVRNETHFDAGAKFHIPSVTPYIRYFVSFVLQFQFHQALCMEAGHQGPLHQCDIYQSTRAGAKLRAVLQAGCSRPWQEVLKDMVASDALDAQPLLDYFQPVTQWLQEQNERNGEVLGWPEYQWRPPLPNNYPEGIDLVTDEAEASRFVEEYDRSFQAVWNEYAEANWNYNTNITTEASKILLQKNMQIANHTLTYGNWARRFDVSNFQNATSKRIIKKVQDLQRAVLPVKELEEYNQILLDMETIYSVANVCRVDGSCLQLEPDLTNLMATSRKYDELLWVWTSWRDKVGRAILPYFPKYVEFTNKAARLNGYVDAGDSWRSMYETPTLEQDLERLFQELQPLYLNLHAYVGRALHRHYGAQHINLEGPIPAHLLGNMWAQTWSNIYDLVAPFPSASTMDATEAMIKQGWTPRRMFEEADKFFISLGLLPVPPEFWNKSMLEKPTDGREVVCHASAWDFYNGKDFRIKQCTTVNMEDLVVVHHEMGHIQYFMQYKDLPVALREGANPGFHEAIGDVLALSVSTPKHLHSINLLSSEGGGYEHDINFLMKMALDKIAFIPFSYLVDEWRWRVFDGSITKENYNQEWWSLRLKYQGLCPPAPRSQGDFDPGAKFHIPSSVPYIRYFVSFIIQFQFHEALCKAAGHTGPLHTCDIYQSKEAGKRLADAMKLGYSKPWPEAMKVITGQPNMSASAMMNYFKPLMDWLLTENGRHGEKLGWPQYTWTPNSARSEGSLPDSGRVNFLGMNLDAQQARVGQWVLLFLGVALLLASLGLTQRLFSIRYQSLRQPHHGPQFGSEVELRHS

[7] = DRUGMATRIX: Potassium Channel [KATP] radioligand binding (ligand: [3H] Glyburide); format: cell membranes, Membrane; conditions: hit-t15; Not Active = under 50% inhibition at 10 µM
[8] = target: T3, Alpha-1A adrenergic receptor (Rattus norvegicus, UniProt P43140); assay: DRUGMATRIX: Alpha-1A adrenergic receptor radioligand binding (ligand: prazosin); format: cell membranes, Wistar, Submaxillary gland, Membrane; conditions: Not Active = under 50% inhibition at 10 µM
T3 sequence (P43140 whole entry): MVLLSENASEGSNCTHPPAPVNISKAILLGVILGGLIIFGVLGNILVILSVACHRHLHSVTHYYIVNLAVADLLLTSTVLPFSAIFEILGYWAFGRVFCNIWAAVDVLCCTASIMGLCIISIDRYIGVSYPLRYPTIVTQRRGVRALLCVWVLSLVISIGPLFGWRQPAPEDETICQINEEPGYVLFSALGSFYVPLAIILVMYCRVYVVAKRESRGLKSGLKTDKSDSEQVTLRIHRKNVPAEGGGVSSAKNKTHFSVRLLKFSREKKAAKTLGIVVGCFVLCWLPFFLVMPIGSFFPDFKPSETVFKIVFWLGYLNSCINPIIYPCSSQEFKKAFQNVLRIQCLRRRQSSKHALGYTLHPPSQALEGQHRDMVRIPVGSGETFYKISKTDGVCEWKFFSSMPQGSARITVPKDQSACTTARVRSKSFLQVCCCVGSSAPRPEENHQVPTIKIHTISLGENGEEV

[9] = DRUGMATRIX: Glutamate, NMDA, Phencyclidine radioligand binding (ligand: [3H] TCP); format: cell membranes, Rattus norvegicus, Wistar, Cerebral cortex, Membrane; conditions: Not Active = under 50% inhibition at 10 µM
[10] = DRUGMATRIX: Glutamate, NMDA, Agonism radioligand binding (ligand: [3H] CGP-39653); format: cell membranes, Rattus norvegicus, Wistar, Cerebral cortex, Membrane; conditions: Not Active = under 50% inhibition at 10 µM
Mu-type opioid receptor = Mu-type opioid receptor (Homo sapiens, UniProt P35372); assay: DRUGMATRIX: Opiate mu (OP3, MOP) radioligand binding (ligand: [3H] Diprenorphine); format: cell membranes, CHO-K1, Membrane; conditions: cho-k1; Not Active = under 50% inhibition at 10 µM
Chain of Mu-type opioid receptor (P35372 whole entry): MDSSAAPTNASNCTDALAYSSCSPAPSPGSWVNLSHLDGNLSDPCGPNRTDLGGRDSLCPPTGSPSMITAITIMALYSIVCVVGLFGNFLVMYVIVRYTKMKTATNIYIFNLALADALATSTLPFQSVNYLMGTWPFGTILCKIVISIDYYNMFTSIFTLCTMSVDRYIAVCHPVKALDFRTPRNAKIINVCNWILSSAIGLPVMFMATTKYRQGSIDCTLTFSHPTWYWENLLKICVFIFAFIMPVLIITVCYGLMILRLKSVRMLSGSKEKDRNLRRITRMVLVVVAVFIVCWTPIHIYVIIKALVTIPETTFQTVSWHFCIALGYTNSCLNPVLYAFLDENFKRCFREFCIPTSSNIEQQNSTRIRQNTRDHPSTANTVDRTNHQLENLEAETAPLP

Cytochrome P450 3A4 = Cytochrome P450 3A4 (Homo sapiens, UniProt P08684); conditions: bti-tn-5b1-4; also: in other assays of this panel Not Active means under 50% inhibition at 10 µM
Chain of Cytochrome P450 3A4 (P08684 whole entry): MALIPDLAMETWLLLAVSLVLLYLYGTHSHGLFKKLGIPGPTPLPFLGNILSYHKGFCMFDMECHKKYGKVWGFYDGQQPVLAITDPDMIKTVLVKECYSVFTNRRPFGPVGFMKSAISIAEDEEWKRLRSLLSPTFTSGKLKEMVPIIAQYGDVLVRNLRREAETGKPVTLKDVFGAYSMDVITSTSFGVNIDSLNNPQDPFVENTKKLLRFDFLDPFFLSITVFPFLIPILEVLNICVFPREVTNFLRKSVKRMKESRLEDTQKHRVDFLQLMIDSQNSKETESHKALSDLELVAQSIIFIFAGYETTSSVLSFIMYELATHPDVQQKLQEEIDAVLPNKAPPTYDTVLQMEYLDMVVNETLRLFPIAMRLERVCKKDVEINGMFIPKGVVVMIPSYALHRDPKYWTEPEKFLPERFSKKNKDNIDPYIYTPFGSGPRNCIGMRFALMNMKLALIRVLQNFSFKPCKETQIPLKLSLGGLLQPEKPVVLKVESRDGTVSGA

[11] = DRUGMATRIX: Interleukin IL-1 radioligand binding (ligand: [125I] interleukin 1beta); format: cell membranes, Membrane; conditions: nih3t3; Not Active = under 50% inhibition at 10 µM

COc1c(N2CCNC(C)C2)c(F)cc2c(=O)c(C(=O)O)cn(C3CC3)c12 (configuration not stated) [GATIFLOXACIN]
Not Active: IC50 [1] | Ki [1] | IC50 [2] | Ki [2] | IC50 [3] | Ki [3] | IC50 [4] | IC50 [5] | IC50 [6] | IC50 [7] | Ki [7] | IC50 [8] | IC50 [9] | Ki [9] | IC50 [10] | Ki [10] | IC50 (Mu-type opioid receptor) | IC50 (Cytochrome P450 3A4) | Ki (Cytochrome P450 3A4) | IC50 [11] | Ki [11]

CC1=Nc2ccc(Cl)cc2S(=O)(=O)N1 [DIAZOXIDE]
Not Active: IC50 [1] | Ki [1] | IC50 [2] | Ki [2] | IC50 [3] | Ki [3] | IC50 [4] | IC50 [5] | IC50 [6] | IC50 [7] | Ki [7] | IC50 [8] | IC50 [9] | Ki [9] | IC50 [10] | Ki [10] | IC50 (Mu-type opioid receptor) | IC50 (Cytochrome P450 3A4) | Ki (Cytochrome P450 3A4) | IC50 [11] | Ki [11]

COc1ccc2c(c1)c(CC(=O)OCC(=O)O)c(C)n2C(=O)c1ccc(Cl)cc1 [ACEMETACIN]
Not Active: IC50 [1] | Ki [1] | IC50 [2] | Ki [2] | IC50 [3] | Ki [3] | IC50 [4] | IC50 [5] | IC50 [6] | IC50 [7] | Ki [7] | IC50 [8] | IC50 [9] | Ki [9] | IC50 [10] | Ki [10] | IC50 (Mu-type opioid receptor) | IC50 (Cytochrome P450 3A4) | Ki (Cytochrome P450 3A4) | IC50 [11] | Ki [11]

CC(C)(S)[C@@H](N)C(=O)O [PENICILLAMINE]
Not Active: IC50 [1] | Ki [1] | IC50 [2] | Ki [2] | IC50 [3] | Ki [3] | IC50 [4] | IC50 [5] | IC50 [6] | IC50 [7] | Ki [7] | IC50 [8] | IC50 [9] | Ki [9] | IC50 [10] | Ki [10] | IC50 (Mu-type opioid receptor) | IC50 (Cytochrome P450 3A4) | Ki (Cytochrome P450 3A4) | IC50 [11] | Ki [11]

Cc1[nH]cnc1CN1CCc2c(c3ccccc3n2C)C1=O [ALOSETRON]
Not Active: IC50 [1] | Ki [1] | IC50 [2] | Ki [2] | IC50 [3] | Ki [3] | IC50 [4] | IC50 [5] | IC50 [6] | IC50 [7] | Ki [7] | IC50 [8] | IC50 [9] | Ki [9] | IC50 [10] | Ki [10] | IC50 (Mu-type opioid receptor) | IC50 (Cytochrome P450 3A4) | Ki (Cytochrome P450 3A4) | IC50 [11] | Ki [11]

NS(=O)(=O)c1cc2c(cc1Cl)NCNS2(=O)=O [HYDROCHLOROTHIAZIDE]
Not Active: IC50 [1] | Ki [1] | IC50 [2] | Ki [2] | IC50 [3] | Ki [3] | IC50 [4] | IC50 [5] | IC50 [6] | IC50 [7] | Ki [7] | IC50 [8] | IC50 [9] | Ki [9] | IC50 [10] | Ki [10] | IC50 (Mu-type opioid receptor) | IC50 (Cytochrome P450 3A4) | Ki (Cytochrome P450 3A4) | IC50 [11] | Ki [11]

CN1C(C(=O)Nc2ccccn2)=C(O)c2ccccc2S1(=O)=O [PIROXICAM]
Not Active: IC50 [1] | Ki [1] | IC50 [2] | Ki [2] | IC50 [3] | Ki [3] | IC50 [4] | IC50 [5] | IC50 [6] | IC50 [7] | Ki [7] | IC50 [8] | IC50 [9] | Ki [9] | IC50 [10] | Ki [10] | IC50 (Mu-type opioid receptor) | IC50 (Cytochrome P450 3A4) | Ki (Cytochrome P450 3A4) | IC50 [11] | Ki [11]
